This assay deals with T1, adenosine transporter (AT; NBMPR-sensitive equilibrative nucleoside transporter subtype, ENT) (Homo sapiens, UniProt Q99808).
T1 sequence (Q99808 2-456): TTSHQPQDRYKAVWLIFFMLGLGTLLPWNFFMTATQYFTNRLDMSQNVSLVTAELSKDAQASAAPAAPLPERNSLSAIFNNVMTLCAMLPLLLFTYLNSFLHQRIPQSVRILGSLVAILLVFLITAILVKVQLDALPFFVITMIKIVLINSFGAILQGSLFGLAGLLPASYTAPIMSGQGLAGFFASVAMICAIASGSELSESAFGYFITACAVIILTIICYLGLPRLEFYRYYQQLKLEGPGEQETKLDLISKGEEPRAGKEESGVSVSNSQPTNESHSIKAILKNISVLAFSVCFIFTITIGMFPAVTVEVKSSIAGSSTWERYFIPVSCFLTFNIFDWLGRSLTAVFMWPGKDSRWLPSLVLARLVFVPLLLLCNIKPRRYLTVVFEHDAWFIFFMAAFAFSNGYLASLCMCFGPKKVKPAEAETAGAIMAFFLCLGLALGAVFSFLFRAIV
The experiment in a line: [3H]adenosine uptake inhibition in HeLa cells. It counts as cell-based. The following applies: read-out: Findings.

pIC50: −log10 of the molar value.

For the compound `COCCOc1cnc2ccn([C@H](C)c3nnc4c(F)cc(-c5cnn(C)c5)cn34)c(=O)c2c1` [AMG 337], the pIC50 is 6.55.

Values taken from article PMC6657233 (Translational Oncology, 2019).
